Assay results from PubChem BioAssay AID1963983 (Molecular Pharmacology Branch, DTP, NCI, 2024).
Blank lines part the entries; values can stand above or below the molecule they belong to.

Test system: 186277-243-T-J2-PDC multi-cell spheroid viability
Assay: Anticancer human tumor 186277-243-T-J2-PDC patient-derived colon adenocarcinoma cell line growth inhibition [PI3K]
Settings: for viability, T/C: stronger effect = lower value
Summary of the method: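 Targeted small molecules plus PI3K inhibitors, half-log dose series from Cmax (default top 10 microM), were applied to heterotypic spheroids of cancer cells with HUVEC and MSCs. Viability indicated growth inhibition.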

[1] = curve of first compound, second compound 0.0316 µM
[2] = curve of first compound, second compound 0.1 µM
[3] = curve of first compound, second compound 0.316 µM
[4] = curve of first compound, second compound 1 µM
[5] = curve of first compound, second compound 3.16 µM
[6] = curve of first compound, second compound 10 µM
[7] = second compound 0.0316 µM, first compound 0.0316 µM
[8] = second compound 0.0316 µM, first compound 0.1 µM
[9] = second compound 0.0316 µM, first compound 0.316 µM
[10] = second compound 0.0316 µM, first compound 1 µM
[11] = second compound 0.0316 µM, first compound 3.16 µM
[12] = second compound 0.0316 µM, first compound 10 µM
[13] = second compound 0.1 µM, first compound 0.0316 µM
[14] = second compound 0.1 µM, first compound 0.1 µM
[15] = second compound 0.1 µM, first compound 0.316 µM
[16] = second compound 0.1 µM, first compound 1 µM
[17] = second compound 0.1 µM, first compound 3.16 µM
[18] = second compound 0.1 µM, first compound 10 µM
[19] = second compound 0.316 µM, first compound 0.0316 µM
[20] = second compound 0.316 µM, first compound 0.1 µM
[21] = second compound 0.316 µM, first compound 0.316 µM
[22] = second compound 0.316 µM, first compound 1 µM
[23] = second compound 0.316 µM, first compound 3.16 µM
[24] = second compound 0.316 µM, first compound 10 µM
[25] = second compound 1 µM, first compound 0.0316 µM
[26] = second compound 1 µM, first compound 0.1 µM
[27] = second compound 1 µM, first compound 0.316 µM
[28] = second compound 1 µM, first compound 1 µM
[29] = second compound 1 µM, first compound 3.16 µM
[30] = second compound 1 µM, first compound 10 µM
[31] = second compound 3.16 µM, first compound 0.0316 µM
[32] = second compound 3.16 µM, first compound 0.1 µM
[33] = second compound 3.16 µM, first compound 0.316 µM
[34] = second compound 3.16 µM, first compound 1 µM
[35] = second compound 3.16 µM, first compound 3.16 µM
[36] = second compound 3.16 µM, first compound 10 µM
[37] = second compound 10 µM, first compound 0.0316 µM
[38] = second compound 10 µM, first compound 0.1 µM
[39] = second compound 10 µM, first compound 0.316 µM
[40] = second compound 10 µM, first compound 1 µM
[41] = second compound 10 µM, first compound 3.16 µM
[42] = second compound 10 µM, first compound 10 µM
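Note: spheroids exposed to compounds for seven days before viability reading.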
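Throughout, for viability, T/C: 100% = DMSO vehicle control viability.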

IC50 [1]: 4.86 µM | IC50 [2]: 4.45 µM | IC50 [3]: 5.63 µM | IC50 [4]: 4.84 µM | IC50 [5]: 5.17 µM | IC50 [6]: 4.67 µM
Compound: CC1(C)CCC(CN2CCN(c3ccc(C(=O)NS(=O)(=O)c4ccc(NCC5CCOCC5)c([N+](=O)[O-])c4)c(Oc4cnc5[nH]ccc5c4)c3)CC2)=C(c2ccc(Cl)cc2)C1 + CC(Nc1ncnc2nc[nH]c12)c1cc2cccc(Cl)c2c(=O)n1-c1ccccc1
viability, T/C [7]: 96.6% | viability, T/C [8]: 96.2% | viability, T/C [9]: 95% | viability, T/C [10]: 105% | viability, T/C [11]: 77.3% | viability, T/C [12]: 4.52% | viability, T/C [13]: 99.5% | viability, T/C [14]: 116% | viability, T/C [15]: 96.7% | viability, T/C [16]: 92.2% | viability, T/C [17]: 70.5% | viability, T/C [18]: 4.02% | viability, T/C [19]: 97% | viability, T/C [20]: 108% | viability, T/C [21]: 91.8% | viability, T/C [22]: 98.6% | viability, T/C [23]: 92.1% | viability, T/C [24]: 8% | viability, T/C [25]: 105% | viability, T/C [26]: 116% | viability, T/C [27]: 102% | viability, T/C [28]: 112% | viability, T/C [29]: 77% | viability, T/C [30]: 4.04% | viability, T/C [31]: 112% | viability, T/C [32]: 115% | viability, T/C [33]: 106% | viability, T/C [34]: 103% | viability, T/C [35]: 85.9% | viability, T/C [36]: 3.14% | viability, T/C [37]: 97% | viability, T/C [38]: 96.1% | viability, T/C [39]: 97.2% | viability, T/C [40]: 95.5% | viability, T/C [41]: 74.7% | viability, T/C [42]: 2.09%

IC50 (curve of first compound, second compound 0.00316 µM): > 10 µM | IC50 (curve of first compound, second compound 0.01 µM): > 10 µM | IC50 [1]: > 10 µM | IC50 [2]: > 10 µM | IC50 [3]: > 10 µM | IC50 [4]: < 0.0316 µM
Compound: CC(Cn1ccc(-c2ccc(C#N)c(Cl)c2)n1)NC(=O)c1cc(C(C)O)[nH]n1 (stereo not drawn) + CC(Nc1ccc2c(c1)OCCn1cc(N3C(=O)OCC3C(F)F)nc1-2)C(N)=O
viability, T/C (second compound 0.00316 µM, first compound 0.0316 µM): 97.8% | viability, T/C (second compound 0.00316 µM, first compound 0.1 µM): 97% | viability, T/C (second compound 0.00316 µM, first compound 0.316 µM): 91.3% | viability, T/C (second compound 0.00316 µM, first compound 1 µM): 84.9% | viability, T/C (second compound 0.00316 µM, first compound 3.16 µM): 93.6% | viability, T/C (second compound 0.00316 µM, first compound 10 µM): 102% | viability, T/C (second compound 0.01 µM, first compound 0.0316 µM): 101% | viability, T/C (second compound 0.01 µM, first compound 0.1 µM): 93.2% | viability, T/C (second compound 0.01 µM, first compound 0.316 µM): 95.6% | viability, T/C (second compound 0.01 µM, first compound 1 µM): 91.6% | viability, T/C (second compound 0.01 µM, first compound 3.16 µM): 108% | viability, T/C (second compound 0.01 µM, first compound 10 µM): 91.7% | viability, T/C [7]: 106% | viability, T/C [8]: 95.3% | viability, T/C [9]: 102% | viability, T/C [10]: 111% | viability, T/C [11]: 111% | viability, T/C [12]: 95.5% | viability, T/C [13]: 104% | viability, T/C [14]: 107% | viability, T/C [15]: 101% | viability, T/C [16]: 90.1% | viability, T/C [17]: 88.8% | viability, T/C [18]: 74.4% | viability, T/C [19]: 81.3% | viability, T/C [20]: 82% | viability, T/C [21]: 74.6% | viability, T/C [22]: 73% | viability, T/C [23]: 67.7% | viability, T/C [24]: 57.7% | viability, T/C [25]: 47.7% | viability, T/C [26]: 45.9% | viability, T/C [27]: 44.9% | viability, T/C [28]: 45.6% | viability, T/C [29]: 44% | viability, T/C [30]: 35.4%

IC50 [1]: > 10 µM | IC50 [2]: > 10 µM | IC50 [3]: > 10 µM | IC50 [4]: > 10 µM | IC50 [5]: > 10 µM | IC50 [6]: > 10 µM
Compound: C=CC(=O)N1CCN(c2nc(=O)n(-c3c(C)ccnc3C(C)C)c3nc(-c4c(O)cccc4F)c(F)cc23)C(C)C1 (stereo not drawn) + CC(Nc1ncnc2nc[nH]c12)c1cc2cccc(Cl)c2c(=O)n1-c1ccccc1
viability, T/C [7]: 100% | viability, T/C [8]: 95.4% | viability, T/C [9]: 91.8% | viability, T/C [10]: 90.9% | viability, T/C [11]: 99.7% | viability, T/C [12]: 90.4% | viability, T/C [13]: 99% | viability, T/C [14]: 90.1% | viability, T/C [15]: 96.2% | viability, T/C [16]: 93.7% | viability, T/C [17]: 100% | viability, T/C [18]: 107% | viability, T/C [19]: 95.6% | viability, T/C [20]: 87.4% | viability, T/C [21]: 90% | viability, T/C [22]: 92.2% | viability, T/C [23]: 119% | viability, T/C [24]: 88.8% | viability, T/C [25]: 96.1% | viability, T/C [26]: 110% | viability, T/C [27]: 116% | viability, T/C [28]: 101% | viability, T/C [29]: 112% | viability, T/C [30]: 95% | viability, T/C [31]: 101% | viability, T/C [32]: 91.1% | viability, T/C [33]: 106% | viability, T/C [34]: 101% | viability, T/C [35]: 107% | viability, T/C [36]: 92.3% | viability, T/C [37]: 93.9% | viability, T/C [38]: 89% | viability, T/C [39]: 93.6% | viability, T/C [40]: 76.3% | viability, T/C [41]: 87.5% | viability, T/C [42]: 72.7%

IC50 (curve of compound): 5.39 µM [middle of 4 runs]
Compound: CCCS(=O)(=O)Nc1ccc(F)c(C(=O)c2c[nH]c3ncc(-c4ccc(Cl)cc4)cc23)c1F
viability, T/C (compound 0.0316 µM): 94.8% [middle of 4 runs] | viability, T/C (compound 0.1 µM): 89.2% [middle of 4 runs] | viability, T/C (compound 0.316 µM): 86.2% [middle of 4 runs] | viability, T/C (compound 1 µM): 86.7% [middle of 4 runs] | viability, T/C (compound 3.16 µM): 84.1% [middle of 4 runs] | viability, T/C (compound 10 µM): 6.39% [middle of 4 runs]
